Source: US20240034735A1, “NOVEL COMPOUNDS” (AC Immune SA, priority 2022, published 2024)
Read-outs that look alike come from different tables or passages of the source.

Test system: NLRP3 inflammasome pathway
Experiment: NLRP3 inflammasome pathway activation assay (IL-1β release, HTRF)
Type: cell-based, Human
Conditions: for IC50: IL-1β release, PMA-differentiated, LPS-primed cells; for inhibition of IL-1 beta release compared to the equivalent compounds in which Z1=C and Z2=N: human monocyte-like cells, MSU or Nigericin as activators, 8 vs 13, 11 vs 12
Experimental: The following assays were used to determine the inhibitory activity of test compounds on the NLRP3 inflammasome pathway using common stimuli Nigericin (Invivogen) or monosodium urate crystals (MSU) (Invivogen).
Human monocyte-like cells were seeded at 25000 per well in a 384-well plate and were differentiated overnight into macrophages with 10 ng/ml PMA (Phorbol Myristate Acetate). The following day, medium containing 10 ng/ml LPS (Lipopolysaccharide) was added.
For IL-1β quantification, supernatants were analyzed using HTRF kit according to the manufacturer's instructions (Cisbio 62HIL1BPEH), Briefly, in a 384-well ProxiPlate™ microplate, 8 μl of sample was mixed, with 5 μl of Anti-IL1β Cryptate antibody (40×) and Anti-IL1β XL antibody (40×). Then, incubated overnight at RT. Reading was done using an EnVision Reader (PerkinElmer).

[1] = Homo sapiens, stimulation with MSU 200 μg/ml for 3 h, read-out: IC50 Human monocyte-like cells MSU
[2] = stimulation with MSU 200 μg/ml for 3 h, read-out: IC50 Human monocyte-like cells MSU
[3] = stimulation with Nigericin 3.75 μM for 3 h, read-out: IC50 Human monocyte-like cells Nigericin
[4] = Homo sapiens, stimulation with Nigericin 3.75 μM for 3 h, read-out: IC50 Human monocyte-like cells Nigericin

Structure (SMILES)	IC50 [1] [µM]	IC50 [4] [µM]	other results
CN1CCC[C@@H](Nc2nnc(-c3ccc(C(F)(F)F)cc3O)n3nccc23)C1 [Example 2, (R)-2-(4-((1-methylpiperidin-3-yl)amino)pyrazolo[1,5-d][1,2,4]triazin-7-yl)-5-(trifluoromethyl)phenol]	0.005 to 0.02	–	–
CCN1CCC[C@@H](Nc2nnc(-c3ccc(Cl)cc3O)n3ccnc23)C1 [Example 15]	< 0.005	–	–
C[C@]1(O)C[C@@H](Nc2nnc(-c3ccc(C(F)(F)F)cc3O)n3cccc23)C1 [Example 12, 2-(1-(((1s,3s)-3-hydroxy-3-methylcyclobutyl)amino)pyrrolo[1,2-d][1,2,4]triazin-4-yl)-5-(trifluoromethyl)phenol]	–	–	IC50 [2]: 0.005 to 0.02 µM; IC50 [3]: 0.02 to 0.1 µM
CN1CC[C@@H](Nc2nnc(-c3ccc(Cl)cc3O)n3ccnc23)C1 [Example 9]	0.02 to 0.1	–	–
CN1CCC[C@@H](Nc2nnc(-c3ccc(Cl)cc3)n3ccnc23)C1 [Example 6, 5-(4-Chlorophenyl)-N-[(3R)-1-methyl-3-piperidyl]imidazo[1,2-d][1,2,4]triazin-8-amine]	0.02 to 0.1	–	–
CN1CCC[C@@H](Nc2nnc(-c3ccc(C(F)(F)F)cc3O)n3cccc23)C1 [Example 1, (R)-2-(1-((1-methylpiperidin-3-yl)amino)pyrrolo[1,2-d][1,2,4]triazin-4-yl)-5-(trifluoromethyl)phenol]	< 0.005	< 0.005	–
C[C@]1(O)C[C@@H](Nc2nnc(-c3ccc(C(F)(F)F)cc3O)c3cccn23)C1 [Example 11, 2-(4-(((1s,3s)-3-hydroxy-3-methylcyclobutyl)-amino)pyrrolo[1,2-d][1,2,4]triazin-1-yl)-5-(trifluoromethyl)phenol]	< 0.005	0.005 to 0.02	inhibition of IL-1 beta release compared to the equivalent compounds in which Z1=C and Z2=N: significantly increased inhibition
CN1CCC[C@@H](Nc2nnc(-c3ccc(OC(F)F)cc3)n3cccc23)C1 [Example 3, (R)-4-(4-(difluoromethoxy)phenyl)-N-(1-methylpiperidin-3-yl)pyrrolo[1,2-d][1,2,4]triazin-1-amine]	0.005 to 0.02	–	–
CC1(O)CC(Oc2nnc(-c3ccc(C(F)(F)F)cc3O)n3cccc23)C1 (centres unmarked) [Example 8, 2-(1-((1s,3s)-3-hydroxy-3-methylcyclobutoxy)pyrrolo[1,2-d][1,2,4]triazin-4-yl)-5-(trifluoromethyl)phenol]	< 0.005	0.005 to 0.02	inhibition of IL-1 beta release compared to the equivalent compounds in which Z1=C and Z2=N: significantly increased inhibition
CN1CCC[C@@H](Nc2nnc(-c3ccc(OC(F)(F)F)cc3)n3cccc23)C1 [Example 4, (R)-N-(1-methylpiperidin-3-yl)-4-(4-(trifluoromethoxy)phenyl)pyrrolo[1,2-d][1,2,4]triazin-1-amine]	0.02 to 0.1	0.02 to 0.1	–
C[C@]1(O)C[C@@H](Oc2nnc(-c3ccc(C(F)(F)F)cc3O)c3cccn23)C1 [Example 13, 2-(4-((1s,3s)-3-Hydroxy-3-methylcyclobutoxy)pyrrolo[1,2-d][1,2,4]triazin-1-yl)-5-(trifluoromethyl)phenol]	–	–	IC50 [2]: 0.005 to 0.02 µM; IC50 [3]: 0.02 to 0.1 µM
C[C@]1(O)C[C@@H](Nc2nnc(-c3ccc(C(F)(F)F)cc3O)n3ccc(F)c23)C1 [Example 10, 2-(8-Fluoro-1-(((1s,3s)-3-hydroxy-3-methylcyclobutyl)amino)pyrrolo[1,2-d][1,2,4]triazin-4-yl)-5-(trifluoromethyl)phenol]	< 0.005	–	–
